Assays:
native rat liver AMPK = native rat liver AMPK (Rattus norvegicus, UniProt P80386); assay: AMPK kinase assay (SAMS peptide), native rat liver AMPK in solution; assay type: biochemical; conditions: up to 100 mM
Description: We next tested the effect of glycogen on the activity of the native AMPK complex purified from rat liver ([Hawley et al., 1996]). […] The bovine liver glycogen inhibited AMPK completely with an IC50 (concentration causing half-maximal inhibition) of 30 ± 9 mM glucose equivalents (Figure 2A).
(§1) Figure 2 Allosteric Inhibition of AMPK by Different Glycogen Preparations (A) Concentration dependence of inhibition of native rat liver AMPK by preparations of bovine and rat liver glycogen; glycogen concentrations expressed as glucose produced after total hydrolysis. Data were fitted to an IC50 equation (see Supplemental Experimental Procedures), and curves were generated using the estimated best-fit parameters. (B) Concentration dependence of inhibition of native rat liver AMPK by bovine liver glycogen in the presence and absence of 200 μM AMP; curves were generated as in (A). (C) Inhibition by bovine liver glycogen of recombinant AMPK complex (myc-α1:β1:γ1) containing full-length (1–270) or truncated β1 subunit lacking the GBD (172–270). Complexes were expressed in CCL13 cells and purified by immunoprecipitation prior to assay with or without glycogen (200 mM glucose equivalents). Data are means ± SEM (n = 3). ^∗Activity different from control without glycogen by t test (p < 0.05). (D) Inhibition by bovine liver glycogen (200 mM glucose equivalents) of purified, native rat liver AMPK (a mixture of α1β1γ1 and α2β1γ1 complexes) that had been recovered by immunoprecipitation (IP) using anti-α1, anti-α2, or a mixture of anti-α1/-α2 antibodies or assayed in solution without immunoprecipitation. Results are expressed as percentages of the activity in controls without glycogen, and data are mean ± SEM (n = 3). (E) Absorption spectra of bovine and rat liver glycogen preparations in complex with iodine. […]
Purification of Native Rat Liver, AMPK, Recombinant AMPK, and AMPK Assays AMPK was purified from rat liver as far as the gel filtration step (Hawley et al., 1996). The kinase was assayed using the SAMS peptide (Davies et al., 1989). IC50 values for inhibition were estimated by fitting data using GraphPad Prism to the equation: Activity = Residual + Maximum - (Maximum × [Inhibitor]/(IC50+[Inhibitor])) where Residual is the activity in the presence of maximal inhibition, Maximum is the maximal inhibition and [inhibitor] is the concentration of the inhibitory molecule. For recombinant AMPK, constructs encoding myc-tagged α1, β1 and γ1 subunits of AMPK were co-transfected into CCL13 cells using modifications of previous methods (Woods et al., 1996). DNA (10 µg) was dissolved in sterile water (450 µl) to which 50 μl of 2.5 M CaCl2 was added, and the solution vortexed for 1 min. […]

[1] = target: T1, recombinant AMPK complex (myc-α1:β1:γ1) (Rattus norvegicus, UniProt P80386); assay: recombinant wild-type AMPK expressed in CCL13 cells, assayed in anti-myc immunoprecipitates; assay type: biochemical; conditions: 2 mM; Figure 6C
T1 construct: recombinant AMPK complex (myc-α1:β1:γ1) containing full-length (1–270) or truncated β1 subunit lacking the GBD (172–270); made in house; host or cells: human CCL13 cells, co-transfected; isolated by anti-myc immunoprecipitation
T1 sequence (P80386 whole entry, the tested form may be a part): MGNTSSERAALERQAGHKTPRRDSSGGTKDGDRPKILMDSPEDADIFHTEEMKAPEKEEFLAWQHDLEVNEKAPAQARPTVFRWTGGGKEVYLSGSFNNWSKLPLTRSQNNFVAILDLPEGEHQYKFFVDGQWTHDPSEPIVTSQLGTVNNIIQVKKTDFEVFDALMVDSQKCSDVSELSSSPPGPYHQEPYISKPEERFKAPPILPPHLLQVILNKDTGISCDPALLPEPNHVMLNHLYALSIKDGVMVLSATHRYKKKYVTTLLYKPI
T1 sequence (P54645 13-559 partner limits assumed): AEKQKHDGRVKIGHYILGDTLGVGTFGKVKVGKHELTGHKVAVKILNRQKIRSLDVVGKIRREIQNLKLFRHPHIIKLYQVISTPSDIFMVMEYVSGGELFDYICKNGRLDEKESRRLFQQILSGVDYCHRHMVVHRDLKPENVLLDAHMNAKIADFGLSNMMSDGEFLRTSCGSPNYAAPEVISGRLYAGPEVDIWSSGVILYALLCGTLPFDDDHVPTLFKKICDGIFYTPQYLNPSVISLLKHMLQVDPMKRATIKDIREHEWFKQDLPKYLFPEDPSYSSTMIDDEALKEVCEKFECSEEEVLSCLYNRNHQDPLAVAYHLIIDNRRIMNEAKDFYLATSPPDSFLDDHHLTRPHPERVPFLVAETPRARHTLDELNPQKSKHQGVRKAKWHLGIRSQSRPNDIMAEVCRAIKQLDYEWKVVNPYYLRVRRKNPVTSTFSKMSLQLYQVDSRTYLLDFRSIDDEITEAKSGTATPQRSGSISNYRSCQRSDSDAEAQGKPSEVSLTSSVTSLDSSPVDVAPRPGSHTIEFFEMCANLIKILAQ
T1 sequence (P80385 whole entry partner, the tested form may be a part): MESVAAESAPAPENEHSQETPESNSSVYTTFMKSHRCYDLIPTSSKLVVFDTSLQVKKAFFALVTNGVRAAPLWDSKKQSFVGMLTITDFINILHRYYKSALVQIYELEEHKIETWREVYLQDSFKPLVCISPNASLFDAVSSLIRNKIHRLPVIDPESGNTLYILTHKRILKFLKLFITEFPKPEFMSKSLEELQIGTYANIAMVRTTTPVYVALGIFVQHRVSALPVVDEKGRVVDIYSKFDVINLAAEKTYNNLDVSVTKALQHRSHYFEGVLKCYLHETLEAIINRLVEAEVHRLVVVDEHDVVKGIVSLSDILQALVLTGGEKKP
Text: as §1, with “(D) Inhibition by bovine liver glycogen (200 mM glucose equivalents) of purified, native rat liver AMPK (a mixture of α1β1γ1 and α2β1γ1 complexes) that had been recovered by immunoprecipitation (IP) using anti-α1, anti-α2, or a mixture of anti-α1/-α2 antibodies or assayed in solution without immunoprecipitation.” left out, “3).” for “3). (E) Absorption spectra of bovine and rat liver glycogen preparations in complex with iodine.”

rat β1 GBD = conditions: cited from earlier work; for concentration that displaces the β1 GBD from glycogen: ref Polekhina et al. (2005)
[2] = target: T2, recombinant α1β1γ1 complex with β1 GBD mutations (W100G/W133A and others) (Rattus norvegicus, UniProt P80386, W100G/W133A); assay: recombinant AMPK with GBD point mutations in β1, assayed in immunoprecipitates; assay type: biochemical; conditions: 2 mM; Figure 4B
T2 construct: we made mutations in full-length β1 coexpressed with α1 and γ1 in CCL13 cells; made in house; host or cells: human CCL13 cells, co-transfected; isolated by anti-myc immunoprecipitation
T2 sequence (P80386 2-270 W100G/W133A): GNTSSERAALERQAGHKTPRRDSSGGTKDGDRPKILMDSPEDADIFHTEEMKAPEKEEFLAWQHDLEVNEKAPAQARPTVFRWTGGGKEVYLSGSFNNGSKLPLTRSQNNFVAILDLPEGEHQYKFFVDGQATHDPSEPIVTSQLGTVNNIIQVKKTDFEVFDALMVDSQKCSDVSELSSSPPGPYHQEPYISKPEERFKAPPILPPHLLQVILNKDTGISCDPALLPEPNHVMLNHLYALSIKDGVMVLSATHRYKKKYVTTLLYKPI
T2 sequence (P54645 whole entry partner): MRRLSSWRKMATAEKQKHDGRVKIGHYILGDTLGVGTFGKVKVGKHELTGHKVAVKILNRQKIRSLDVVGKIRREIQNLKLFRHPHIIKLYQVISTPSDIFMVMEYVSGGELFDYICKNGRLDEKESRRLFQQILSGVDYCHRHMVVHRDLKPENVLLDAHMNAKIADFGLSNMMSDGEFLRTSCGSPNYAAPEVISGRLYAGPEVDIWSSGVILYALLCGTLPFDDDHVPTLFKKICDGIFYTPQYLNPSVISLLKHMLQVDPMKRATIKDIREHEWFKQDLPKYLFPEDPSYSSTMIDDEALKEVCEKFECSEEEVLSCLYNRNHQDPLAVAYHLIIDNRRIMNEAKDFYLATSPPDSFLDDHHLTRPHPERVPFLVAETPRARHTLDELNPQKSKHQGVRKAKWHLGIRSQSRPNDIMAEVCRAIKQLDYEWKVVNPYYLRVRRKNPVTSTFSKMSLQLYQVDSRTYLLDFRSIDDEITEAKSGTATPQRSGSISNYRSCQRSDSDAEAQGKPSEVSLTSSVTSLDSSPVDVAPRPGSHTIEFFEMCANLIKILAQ
T2 sequence (P80385 whole entry partner): as the sequence (P80385 whole entry partner, the tested form may be a part) above
Text: To test whether mutations that interfered with the binding of glycogen to the GBD also affected inhibition of AMPK by glycogen, we made mutations in full-length β1 coexpressed with α1 and γ1 in CCL13 cells, isolated the complex by immunoprecipitation via the myc tag on α1, and assayed the kinase activity in the presence and absence of glycogen. The activities were adjusted to correct for slight variation in recovery of the α1 subunit assessed by blotting (inset in Figure 3A). […] Because all of these assays were conducted in resuspended immunoprecipitates, the degree of inhibition of the wild-type was < 50%, as discussed in the previous section. […]
Figure 3 Effect of β Subunit Mutations on Inhibition of Recombinant AMPK Complexes by Glycogen (A) Myc-α1, γ1, and β1 with the wild-type sequence or the indicated mutations were expressed in CCL13 cells, immunoprecipitated, and assayed ± bovine liver glycogen (200 mM glucose equivalents); results are mean ± SEM (n = 3). […] (C) Myc-α1, γ1, and β1 with the wild-type sequence or with W100G/W133A mutations were expressed in CCL13 cells, immunoprecipitated using anti-myc (left) or anti-FLAG (right) antibodies, and analyzed by western blotting using anti-myc antibodies (top panels) or a mixture of anti-β1 and -γ1 antibodies (bottom panels). […]

[3] = target: bacterially expressed rat β1 GBD; set-up: method as in Koay et al. (2007); conditions: NMR method; ref Koay et al. (2007); read-out: KD for binding to rat β1 GBD; cited from earlier work
GBD = target: T3, GBD (Rattus norvegicus, UniProt P80386); assay: binding of linear oligosaccharides to the GBD (data not shown)
T3 construct: The rat β1 GBD (residues 70-172 was cloned into pGEX6P2, expressed in Escherichia coli (BL21)); GST (N); made in house; host or cells: E. coli BL21 (inferred)
T3 sequence (P80386 70-172): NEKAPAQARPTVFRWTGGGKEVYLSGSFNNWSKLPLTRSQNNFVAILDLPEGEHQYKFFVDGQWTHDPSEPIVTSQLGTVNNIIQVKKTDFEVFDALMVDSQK

native rat liver AMPK, sequence (P80386 2-270): as the sequence (P80386 2-270 W100G/W133A) above, with G99W, A132W counted along it
native rat liver AMPK, sequence (P54645 whole entry partner): as the sequence (P54645 whole entry partner) above
native rat liver AMPK, sequence (Q09137 whole entry partner): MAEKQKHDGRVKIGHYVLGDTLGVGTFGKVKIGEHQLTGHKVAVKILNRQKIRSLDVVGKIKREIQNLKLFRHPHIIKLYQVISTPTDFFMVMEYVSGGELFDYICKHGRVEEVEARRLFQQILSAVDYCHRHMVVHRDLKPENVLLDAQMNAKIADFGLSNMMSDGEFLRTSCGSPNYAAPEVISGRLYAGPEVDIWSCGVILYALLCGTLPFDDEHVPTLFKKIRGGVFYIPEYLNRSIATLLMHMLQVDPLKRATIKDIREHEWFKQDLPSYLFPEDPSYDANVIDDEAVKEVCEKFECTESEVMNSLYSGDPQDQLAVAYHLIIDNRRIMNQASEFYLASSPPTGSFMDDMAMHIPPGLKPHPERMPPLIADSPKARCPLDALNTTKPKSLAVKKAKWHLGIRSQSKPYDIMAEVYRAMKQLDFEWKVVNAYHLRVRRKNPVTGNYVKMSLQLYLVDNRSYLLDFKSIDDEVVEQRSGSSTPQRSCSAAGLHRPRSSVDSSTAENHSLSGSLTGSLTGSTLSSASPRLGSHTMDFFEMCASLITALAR
native rat liver AMPK, sequence (P80385 whole entry partner): as the sequence (P80385 whole entry partner, the tested form may be a part) above

Row | Molecule | inhibition at concentrations up to 100 mM (native rat liver AMPK) | inhibition of wild-type recombinant α1β1γ1 [1] | competition with glycogen for binding to the GBD (rat β1 GBD; ref Polekhina et al. (2003, 2005)) | inhibition of W100G/W133A mutant [2] | Kd [3] | concentration that displaces the β1 GBD from glycogen (rat β1 GBD) | binding to the GBD (GBD)
1 | OC[C@H]1O[C@H](O[C@H]2[C@H](O)[C@@H](O)C(O)O[C@@H]2CO)[C@H](O)[C@@H](O)[C@@H]1O (mixture of isomers) [maltose] | did not cause any inhibition |  |  |  |  |  | 
2 | CO[C@H]1O[C@H](CO)[C@@H](O[C@H]2O[C@H](CO)[C@@H](O)[C@H](O)[C@H]2O)[C@H](O)[C@H]1O [Oligosaccharide 8, methyl α-maltoside] |  | not significant |  |  |  |  | 
3 | OC[C@H]1O[C@@H]2O[C@H]3[C@H](O)[C@@H](O)[C@@H](O[C@H]4[C@H](O)[C@@H](O)[C@@H](O[C@H]5[C@H](O)[C@@H](O)[C@@H](O[C@H]6[C@H](O)[C@@H](O)[C@@H](O[C@H]7[C@H](O)[C@@H](O)[C@@H](O[C@H]8[C@H](O)[C@@H](O)[C@@H](O[C@H]1[C@H](O)[C@H]2O)O[C@@H]8CO)O[C@@H]7CO)O[C@@H]6CO)O[C@@H]5CO)O[C@@H]4CO)O[C@@H]3CO [β-cyclodextrin] |  |  | can compete | abolished | 300 µM |  | 
4 | maltoheptaose | almost no inhibition |  |  |  | 400 µM | greater than 1 mM | could bind
5 | maltohexaose | almost no inhibition |  |  |  | 700 µM | greater than 1 mM | could bind
